For eleven molecules, IC50 results are on record in EP3478687B1 (Daewoong Pharmaceutical Co., Ltd., priority 2016, dated 2018).

The target of assay [1] is T1, Recombinant purified human JAK3 (Homo sapiens, UniProt P52333).
T1 construct: purchased Promega V9441
T1 sequence (P52333 1-1124): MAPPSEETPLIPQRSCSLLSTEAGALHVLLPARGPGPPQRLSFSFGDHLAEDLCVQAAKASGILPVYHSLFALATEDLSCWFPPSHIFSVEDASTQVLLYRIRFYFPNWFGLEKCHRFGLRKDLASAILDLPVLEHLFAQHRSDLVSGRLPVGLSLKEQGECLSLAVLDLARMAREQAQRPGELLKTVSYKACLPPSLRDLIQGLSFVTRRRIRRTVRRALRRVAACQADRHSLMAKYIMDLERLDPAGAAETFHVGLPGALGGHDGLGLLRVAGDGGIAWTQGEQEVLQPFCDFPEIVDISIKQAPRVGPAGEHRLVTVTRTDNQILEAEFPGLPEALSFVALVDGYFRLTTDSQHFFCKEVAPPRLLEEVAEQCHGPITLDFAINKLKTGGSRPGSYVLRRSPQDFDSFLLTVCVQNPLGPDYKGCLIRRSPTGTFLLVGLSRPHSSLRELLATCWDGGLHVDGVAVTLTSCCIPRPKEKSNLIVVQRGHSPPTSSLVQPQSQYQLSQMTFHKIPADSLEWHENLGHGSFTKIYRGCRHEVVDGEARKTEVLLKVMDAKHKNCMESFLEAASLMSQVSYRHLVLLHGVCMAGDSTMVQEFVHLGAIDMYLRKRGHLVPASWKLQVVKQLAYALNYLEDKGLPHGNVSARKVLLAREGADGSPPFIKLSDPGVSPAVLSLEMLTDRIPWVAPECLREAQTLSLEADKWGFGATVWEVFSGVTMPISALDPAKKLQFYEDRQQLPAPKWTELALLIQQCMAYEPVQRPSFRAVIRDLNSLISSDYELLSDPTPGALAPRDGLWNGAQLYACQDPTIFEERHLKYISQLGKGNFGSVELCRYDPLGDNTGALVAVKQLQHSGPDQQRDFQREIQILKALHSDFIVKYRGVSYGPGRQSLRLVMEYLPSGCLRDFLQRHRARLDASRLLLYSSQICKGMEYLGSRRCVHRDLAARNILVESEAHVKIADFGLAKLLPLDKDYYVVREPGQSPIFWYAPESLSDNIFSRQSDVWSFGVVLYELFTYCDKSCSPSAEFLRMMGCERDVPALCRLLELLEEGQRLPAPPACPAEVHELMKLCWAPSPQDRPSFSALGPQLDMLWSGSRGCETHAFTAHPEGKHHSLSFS
The assay is described as follows: JAK3 kinase inhibitory activity, ADP-Glo kinase assay (Promega V9441). As to conditions: ATP 5 uM, 4 ng JAK3 per reaction, 1 hour 30 °C, chemiluminescence. It is filed as biochemical. The procedure, abridged: (§1)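 Recombinant human kinases in Tris pH 7.5 buffer with MgCl2, BSA and DTT (MnCl2 added for BTK), 4 ng JAK3 or 8 ng BTK per reaction. Poly(Glu4,Tyr1) 0.2 µg/µL with 5 µM (JAK3) or 10 µM (BTK) ATP, 1% DMSO, 1 h at 30 °C. ADP-Glo luminescence used to derive IC50.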
(In general: ADP-Glo turns the ADP formed in a reaction into a luminescent signal.)

Assay [2] concerns the target T2, Recombinant purified human BTK (Homo sapiens, UniProt Q06187).
T2 construct: purchased Promega V9071
Nature of the assay: BTK kinase inhibitory activity, ADP-Glo kinase assay (Promega V9071). It is filed as biochemical. The note with it: ATP 10 uM, 8 ng BTK per reaction, 1 hour 30 °C, chemiluminescence. The procedure, abridged:
as §1

For orientation: IC50 means the concentration that inhibits the measured activity by half.

T2 sequence (Q06187 whole entry): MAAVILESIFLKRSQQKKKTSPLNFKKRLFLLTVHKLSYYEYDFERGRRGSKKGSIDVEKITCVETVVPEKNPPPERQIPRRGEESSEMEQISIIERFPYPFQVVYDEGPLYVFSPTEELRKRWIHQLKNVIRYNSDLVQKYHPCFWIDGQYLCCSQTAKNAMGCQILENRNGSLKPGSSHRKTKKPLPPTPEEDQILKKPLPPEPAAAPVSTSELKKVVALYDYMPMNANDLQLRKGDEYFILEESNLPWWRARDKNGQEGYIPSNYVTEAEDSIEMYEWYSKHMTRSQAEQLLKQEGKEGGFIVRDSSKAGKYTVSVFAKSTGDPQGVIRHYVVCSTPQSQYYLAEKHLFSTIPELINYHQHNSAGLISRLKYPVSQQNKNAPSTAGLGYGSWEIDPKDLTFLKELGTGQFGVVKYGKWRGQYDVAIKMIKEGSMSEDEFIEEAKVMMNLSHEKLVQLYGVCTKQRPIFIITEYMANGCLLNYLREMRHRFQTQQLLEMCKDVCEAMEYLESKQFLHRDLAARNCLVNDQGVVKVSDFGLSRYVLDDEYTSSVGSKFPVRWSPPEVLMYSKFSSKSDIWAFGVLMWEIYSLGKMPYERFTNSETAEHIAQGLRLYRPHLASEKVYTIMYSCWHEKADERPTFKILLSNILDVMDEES

Regarding `C=CC(=O)N1CCC[C@@H](Nc2nc(Nc3cnn(CC(F)(F)F)c3)nc3[nH]ncc23)C1` [Example 144, (R)-1-(3-((6-((1-(2,2,2-trifluoroethyl)-1H-pyrazol-4-yl)amino)-1H-pyrazolo[3,4-d]pyrimidin-4-yl)amino)piperidin-1-yl)prop-2-en-1-one], the IC50 in assay [1] was determined as 1.4 nM; in assay [2], 1.5 nM.
For `C=CC(=O)N1CCC[C@@H](Nc2nc(Nc3cnn(CCN(CC)CC)c3)nc3[nH]ncc23)C1` [Example 145, (R)-1-(3-((6-((1-(2-(diethylamino)ethyl)-1H-pyrazol-4-yl)amino)-1H-pyrazolo[3,4-d]pyrimidin-4-yl)amino)piperidin-1-yl)prop-2-en-1-one], the IC50 was determined as 1.7 nM in assay [1] and 1.4 nM in assay [2].
As for `C=CC(=O)N1CCC[C@@H](Nc2nc(Nc3cnoc3)nc3[nH]ncc23)C1` [Example 146, (R)-1-(3-((6-(isoxazol-4-ylamino)-1H-pyrazolo[3,4-d]pyrimidin-4-yl)amino)piperidin-1-yl)prop-2-en-1-one], the IC50 was 7.4 nM in assay [1] and 1.4 nM in assay [2].
Turning to `C=CC(=O)N1CCC[C@@H](Oc2nc(Nc3cnn(CC)c3)nc3[nH]nc(Cl)c23)C1` [Example 147], the IC50 in assay [1] was determined as 1.4 nM; in assay [2] it was 2.1 nM.
For `C=CC(=O)N1CCC[C@@H](Oc2nc(Nc3cnn(C4CC4)c3)nc3[nH]cc(C#N)c23)C1` [Example 148, (R)-4-((1-acryloylpiperidin-3-yl)oxy)-2-((1-cyclopropyl-1H-pyrazol-4-yl)amino)-7H-pyrrolo[2,3-d]pyrimidine-5-carbonitrile] the same measures were 0.3 nM and 1.6 nM.
In the case of `C=CC(=O)N1CCC[C@@H](Oc2nc(Nc3cnn(CC(F)F)c3)nc3[nH]cc(C#N)c23)C1` [Example 149, (R)-4-((1-acryloylpiperidin-3-yl)oxy)-2-((1-(2,2-difluoroethyl)-1H-pyrazol-4-yl)amino)-7H-pyrrolo[2,3-d]pyrimidine-5-carbonitrile], the IC50 in assay [1] came to 0.2 nM; in assay [2] it was 1.6 nM.
On to `C=CC(=O)N1CCC[C@@H](Oc2nc(Nc3cnn(CC)c3)nc3[nH]cc(C#N)c23)C1` [Example 150, (R)-4-((1-acryloylpiperidin-3-yl)oxy)-2-((1-ethyl-1H-pyrazol-4-yl)amino)-7H-pyrrolo[2,3-d]pyrimidine-5-carbonitrile], for which the IC50 in assay [1] is 0.3 nM; in assay [2] it was 1.6 nM.
Regarding `C=CC(=O)N1CCC[C@@H](Oc2nc(Nc3cnn(CC)c3)nc3[nH]ccc23)C1` [Example 151, (R)-1-(3-((2-((1-ethyl-1H-pyrazol-4-yl)amino)-7H-pyrrolo[2,3-d]pyrimidin-4-yl)oay)piperidin-1-yl)prop-2-en-1-one], the values for the IC50 in assay [1] and in assay [2] were 0.4 nM and 3 nM, respectively.
Take `C=CC(=O)N1CCC[C@@H](Oc2nc(Nc3ccc(N4CCOCC4)cc3)nc3[nH]ccc23)C1` [Example 152, (R)-1-(3-((2-((4-morpholinophenyl)amino)-7H-pyrrolo[2,3-d]pyrimidin-4-yl)oay)piperidin-1-yl)prop-2-en-1-one]: the values for the IC50 in assay [1] and in assay [2] were 2 nM and 4.5 nM, respectively.
Consider `C=CC(=O)N1CCC[C@@H](Oc2nc(Nc3cnn(C4CC4)c3)nc3[nH]nc(Cl)c23)C1` [Example 153], for which the figures for the 50% inhibitory concentration (IC50) in assay [1] and in assay [2] were 1.6 nM and 2.2 nM, respectively.
Taken in the same sequence, the figures for `N#C/C(=C\C1CC1)C(=O)N1CCC[C@@H](Oc2nc(Nc3cnn(C4CC4)c3)nc3[nH]nc(Cl)c23)C1` [Example 154, (R,E)-2-(3-((3-chloro-6-((1-cyclopropyl-1H-pyrazol-4-yl)amino)-1H-pyrazolo[3,4-d]pyrimidin-4-yl)oxy)piperidine-1-carbonyl)-3-cyclopropylacrylonitrile] were 54.2 nM and 2.5 nM.
